Assay [1] in a line: Fluorophore-assisted carbohydrate electrophoresis (FACE), GBP binding to glycosaminoglycans. The following applies: LMWH, CS, DS; PBS, 25° C., 15 min; FIG. 1A. Here is the method:
(§1) Fluorophore-assisted carbohydrate electrophoresis (FACE) is carried out by pre-mixing (A) AMAC-labeled LMWH, chondroitin sulfate (CS), and dermatan sulfate (DS) and (B) AMAC-labeled LMWH, de-2-O-sulfated heparin, de-6-O-sulfated heparin, and N-acetyl-de-O-sulfated heparin (0.33 nmol) with indicated fold molar excess of GBP before incubated with or without peptide in PBS at 25° C. for 15 min. The reaction products are separated on a 1% agarose gel. The reacted probe and protein are shown above the gel. Relative intensity (%) of free probe and the unlabeled competitors are shown at the bottom of the gel.
(§2) Carbohydrate were labeled with 2-aminoacridone (AMAC) (Invitrogen, catalog no. A6289) according to previous study (Calabro, A., Benavides, M., Tammi, M., Hascall, V. C., and Midura, R. J. (2000) Microanalysis of enzyme digests of hyaluronan and chondroitin/dermatan sulfate by fluorophore-assisted carbohydrate electrophoresis (FACE), Glycobiology 10, 273-281). Briefly, fifty micrograms GAGs were dried by freeze-drying machine, and then incubated with 40 μl 1.25 M 2-aminoacridone (AMAC)/85% DMSO/15% acetic acid at 25° C. for 15 min. Forty microliters of 1.25 M sodium cyanoborohydride (NaBH3CN) was added and incubated at 37° C. for 16 h. Afterwards, 720 μl 99% ice-cold ethanol was added at −20° C. for 15 min, then centrifugation at 11,000×g at 4° C. for 5 min. […]

Assay [2] in a line: FACE, GBP binding to heparin and desulfated heparins. To be noted: LMWH and desulfated heparins; FIG. 1B. On the procedure:
as §1, §2

For the next assay, the system named is neoplastic lung tissues. Description: IHC targeting of GBP in lung cancer tissue arrays, overall. The class given is binding, human. On the procedure: The 5 μm slides were dried in the oven at 60° C. for 1 h. Briefly, the sections were deparaffinized with xylene (J. T. Baker Phillipsburg, N) for 15 min and rehydrated in graded ethanol solutions. Endogenous peroxidase activity was blocked by incubating the sections in a 3% hydrogen peroxide solution in distilled water for 10 min. The sections were then washed and placed in phosphate buffer for 10 min. Antigen retrieval was achieved by heat treatment using 10 mM citrate buffer solution pH 6.0 or by 0.1% trypsin treatment for 5 min (for 10E4). After the slides were blocked in 3% BSA solution for 1 h and incubated with 2 μM eGFP-GBP fusion protein for 2 h (for eGFP), these sections were then incubated with 10E4 antibody (1:200 dilution) and eGFP antibody (1:200 dilution) at 4° C. overnight, individually. […]
Every tumor was given a score according to the intensity of the nuclear or cytoplasmic staining (no staining=0; weak staining=1; moderate staining=2; strong staining=3) and the extent of stained cells (0-10%=0; 11-50%=1; 51-80%=2; 81-100%=3). The final immunoreactive score was determined by multiplying the intensity and extent of positivity scores of stained cells, with the minimum score of 0 and a maximum score of 9.
Specimen scores from 61 cases of lung cancers from tissue arrays were used for quantitative evaluation of IHC data. […]

In the case of NYRWRCKNQN [GBP], the “GBP binding to glycosaminoglycans (FACE)” value in assay [1] is “probed universal glycosaminoglycans including low molecular weight heparin, chondroitin sulfate and dermatan sulfate”. Further, in assay [2], the “GBP recognition of sulfated HS / heparin derivatives (FACE)” value is “identified sulfated HS, especially preferring O-sulfated heparin”. The “GBP recognition, aggressive versus early stage of cancer” value in the assay on neoplastic lung tissues is given as “higher recognition toward more aggressive tumor progression”.

The record behind these values is patent US20130315828A1, “KIT AND METHOD OF USE OF TARGETING PEPTIDE FOR DIAGNOSIS AND THERAPY OF CANCER” (NATIONAL TSING HUA UNIVERSITY, priority 2012, published 2013).
